Test results reported in ChEMBL document CHEMBL4627412.

Legend:
[1] = molecular target: Human immunodeficiency virus type 1 protease (Human immunodeficiency virus 1, UniProt Q72874); test: Inhibition of HIV1 NL4-3 protease expressed in Escherichia coli TAP-106 cells using EDANS/DABCYL-labelled 10-amino acid containing protease cleavage site as substrate preincubated for 1 hr followed by substrate addition and measured for 60 mins by FRET assay
Protease [2] = molecular target: Protease (Human immunodeficiency virus 1, UniProt Q9YQ12, I84V); test: Inhibition of HIV1 NL4-3 protease I84V mutant expressed in Escherichia coli TAP-106 cells using EDANS/DABCYL-labelled 10-amino acid containing protease cleavage site as substrate preincubated for 1 hr followed by substrate addition and measured for 60 mins by FRET assay
Chain of Protease (Human immunodeficiency virus 1, UniProt Q9YQ12, I84V) (Q9YQ12 entry or part of it I84V): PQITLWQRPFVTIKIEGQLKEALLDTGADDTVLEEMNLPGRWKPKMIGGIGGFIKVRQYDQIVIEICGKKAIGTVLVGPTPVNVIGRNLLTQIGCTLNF

Protease [3] = molecular target: Protease (Human immunodeficiency virus 1, UniProt Q9YQ12, A71V/I50V); test: Inhibition of HIV1 NL4-3 protease I50V/A71V mutant expressed in Escherichia coli TAP-106 cells using EDANS/DABCYL-labelled 10-amino acid containing protease cleavage site as substrate preincubated for 1 hr followed by substrate addition and measured for 60 mins by FRET assay
Chain of Protease (Human immunodeficiency virus 1, UniProt Q9YQ12, A71V/I50V) (Q9YQ12 entry or part of it A71V/I50V): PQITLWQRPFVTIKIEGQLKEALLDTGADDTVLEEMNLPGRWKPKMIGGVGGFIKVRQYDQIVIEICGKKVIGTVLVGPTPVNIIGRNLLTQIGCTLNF

[4] = system: Human immunodeficiency virus 1; test: Antiviral activity against wild-type HIV1 NL4-3 infected in human TZM-bl cells infected with supernatants from virus-infected human 293T cells treated with compound for 18 hrs assessed as reduction in viral replication by luciferase assay; format: functional, organism-based; conditions: Human immunodeficiency virus 1, NL4-3, 18 h

Question: Which Ki [1] does the source give for `COC(=O)NC1(C(=O)N[C@@H](Cc2ccccc2)[C@@H](O)C[C@H](Cc2ccccc2)NC(=O)O[C@H]2CO[C@H]3OCC[C@H]32)CCCC1` here?
Answer: 46 nM

Question: And the Ki (Protease [2])?
Answer: 236 nM

Question: And the Ki (Protease [3])?
Answer: 484 nM

Question: How did the Ki [1] turn out when `Cc1cccc(C)c1OCC(=O)N[C@@H](Cc1ccccc1)C[C@H](O)[C@H](Cc1ccccc1)NC(=O)O[C@H]1CO[C@H]2OCC[C@H]21` was run?
Answer: 0.037 nM

Question: And the Ki (Protease [2])?
Answer: 0.259 nM

Question: And the EC50 [4]?
Answer: 16 nM

Question: Which Ki [1] does the source give for `CC[C@H](C)[C@H](NC(=O)OC)C(=O)N[C@@H](Cc1ccccc1)[C@@H](O)C[C@H](Cc1ccccc1)NC(=O)O[C@H]1CO[C@H]2OCC[C@H]21` here?
Answer: 0.055 nM

Question: And the Ki (Protease [2])?
Answer: 0.198 nM

Question: What about the Ki (Protease [3]) of the same molecule?
Answer: 0.56 nM

Question: What about the EC50 [4] of the same molecule?
Answer: 70 nM

Question: Which Ki [1] does the source give for `Cc1cccc(C)c1OCC(=O)N[C@@H](Cc1ccccc1)[C@@H](O)C[C@H](Cc1ccccc1)NC(=O)O[C@H]1CO[C@H]2OCC[C@H]21` here?
Answer: 0.017 nM

Question: And the Ki (Protease [2])?
Answer: 0.069 nM

Question: What about the Ki (Protease [3]) of the same molecule?
Answer: 0.072 nM

Question: And the EC50 [4]?
Answer: 38 nM

Question: What does the source list for `COC(=O)NC1(C(=O)N[C@@H](Cc2ccccc2)C[C@H](O)[C@H](Cc2ccccc2)NC(=O)O[C@H]2CO[C@H]3OCC[C@H]32)CCCC1`?
Answer: Ki [1]: 7.3 nM; Ki (Protease [2]): 191 nM; Ki (Protease [3]): 40 nM

Question: How did the EC50 [4] turn out when `Cc1cccc(C)c1OCC(=O)N[C@@H](Cc1ccccc1)[C@@H](O)C[C@H](Cc1ccccc1)NC(=O)[C@H](C(C)C)N1CCCNC1=O` [LOPINAVIR] was run?
Answer: 12 nM

Question: Which Ki [1] does the source give for `COC(=O)N[C@H](C(=O)N[C@@H](Cc1ccccc1)C[C@H](O)[C@H](Cc1ccccc1)NC(=O)O[C@H]1CO[C@H]2OCC[C@H]21)C1CCCC1` here?
Answer: 0.161 nM

Question: And the Ki (Protease [2])?
Answer: 1.18 nM

Question: What about the Ki (Protease [3]) of the same molecule?
Answer: 1.39 nM

Question: Which Ki [1] does the source give for `COC(=O)N[C@H](C(=O)N[C@@H](Cc1ccccc1)[C@@H](O)C[C@H](Cc1ccccc1)NC(=O)O[C@H]1CO[C@H]2OCC[C@H]21)C1CCCC1` here?
Answer: 0.235 nM

Question: And the Ki (Protease [2])?
Answer: 0.71 nM

Question: And the Ki (Protease [3])?
Answer: 2.35 nM

Question: Which results are given for `CC[C@@H](C)[C@H](NC(=O)OC)C(=O)N[C@@H](Cc1ccccc1)[C@@H](O)C[C@H](Cc1ccccc1)NC(=O)O[C@H]1CO[C@H]2OCC[C@H]21`?
Answer: Ki [1]: 0.027 nM; Ki (Protease [2]): 0.091 nM; Ki (Protease [3]): 0.029 nM; EC50 [4]: 240 nM

Question: What does the source list for `COC(=O)N[C@H](C(=O)N[C@@H](Cc1ccccc1)[C@@H](O)C[C@H](Cc1ccccc1)NC(=O)O[C@H]1CO[C@H]2OCC[C@H]21)C(C)C`?
Answer: Ki [1]: 0.074 nM; Ki (Protease [2]): 0.302 nM; Ki (Protease [3]): 0.295 nM; EC50 [4]: 55 nM

Question: Which Ki [1] does the source give for `COC(=O)N[C@H](C(=O)N[C@@H](Cc1ccccc1)C[C@H](O)[C@H](Cc1ccccc1)NC(=O)O[C@H]1CO[C@H]2OCC[C@H]21)C(C)(C)C` here?
Answer: 0.013 nM

Question: What about the Ki (Protease [2]) of the same molecule?
Answer: 0.372 nM

Question: What about the Ki (Protease [3]) of the same molecule?
Answer: 0.072 nM

Question: And the EC50 [4]?
Answer: 39 nM

Question: Which results are given for `COC(=O)N[C@H](C(=O)N[C@@H](Cc1ccccc1)[C@@H](O)C[C@H](Cc1ccccc1)NC(=O)O[C@H]1CO[C@H]2OCC[C@H]21)C(C)(C)C`?
Answer: Ki [1]: 0.018 nM; Ki (Protease [2]): 0.208 nM; Ki (Protease [3]): 0.273 nM; EC50 [4]: 11 nM

Question: Which Ki [1] does the source give for `COC(=O)N[C@H](C(=O)N[C@@H](Cc1ccccc1)[C@@H](O)C[C@H](Cc1ccccc1)NC(=O)O[C@H]1CO[C@H]2OCC[C@H]21)C1CC1` here?
Answer: 0.571 nM

Question: What about the Ki (Protease [2]) of the same molecule?
Answer: 1.82 nM

Question: And the Ki (Protease [3])?
Answer: 1.66 nM

Question: For `COC(=O)N[C@@H](C)C(=O)N[C@@H](Cc1ccccc1)[C@@H](O)C[C@H](Cc1ccccc1)NC(=O)O[C@H]1CO[C@H]2OCC[C@H]21`, which Ki [1] is on record?
Answer: 0.019 nM

Question: What about the Ki (Protease [2]) of the same molecule?
Answer: 0.069 nM

Question: What about the Ki (Protease [3]) of the same molecule?
Answer: 0.073 nM

Question: What about the EC50 [4] of the same molecule?
Answer: 66 nM
